Results as given in ChEMBL document CHEMBL2010672, “Pyridyl aminothiazoles as potent Chk1 inhibitors: optimization of cellular activity” (Bioorg Med Chem Lett, 2012).

Experiments:
NCI-H1299 = assay: Inhibition of DNA damage-induced cell cycle arrest in human H1299 cells assessed as progression into mitosis measuring mitosis specific-phosphorylation of nucleolin after 8 hrs by checkpoint escape assay; type: functional, cell-based; details: NCI-H1299, 8 h
[1] = molecular target: Cyclin-dependent kinase 7 (Homo sapiens, UniProt P50613); assay: Inhibition of CDK7
Cyclin-dependent kinase 7, sequence (P50613 whole entry): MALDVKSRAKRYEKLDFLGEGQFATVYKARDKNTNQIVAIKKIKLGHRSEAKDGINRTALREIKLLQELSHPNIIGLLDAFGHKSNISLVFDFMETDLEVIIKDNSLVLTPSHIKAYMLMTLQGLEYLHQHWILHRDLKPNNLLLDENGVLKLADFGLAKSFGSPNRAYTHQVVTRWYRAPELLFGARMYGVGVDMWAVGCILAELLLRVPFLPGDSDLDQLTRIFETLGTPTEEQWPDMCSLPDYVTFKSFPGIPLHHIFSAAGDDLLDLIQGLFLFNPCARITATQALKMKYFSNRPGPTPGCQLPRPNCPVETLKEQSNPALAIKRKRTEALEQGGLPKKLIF

[2] = molecular target: T1, Serine/threonine-protein kinase Chk1 (Homo sapiens, UniProt O14757); assay: Inhibition of CHK1 by time resolved fluorescence assay
T1 sequence (O14757 whole entry): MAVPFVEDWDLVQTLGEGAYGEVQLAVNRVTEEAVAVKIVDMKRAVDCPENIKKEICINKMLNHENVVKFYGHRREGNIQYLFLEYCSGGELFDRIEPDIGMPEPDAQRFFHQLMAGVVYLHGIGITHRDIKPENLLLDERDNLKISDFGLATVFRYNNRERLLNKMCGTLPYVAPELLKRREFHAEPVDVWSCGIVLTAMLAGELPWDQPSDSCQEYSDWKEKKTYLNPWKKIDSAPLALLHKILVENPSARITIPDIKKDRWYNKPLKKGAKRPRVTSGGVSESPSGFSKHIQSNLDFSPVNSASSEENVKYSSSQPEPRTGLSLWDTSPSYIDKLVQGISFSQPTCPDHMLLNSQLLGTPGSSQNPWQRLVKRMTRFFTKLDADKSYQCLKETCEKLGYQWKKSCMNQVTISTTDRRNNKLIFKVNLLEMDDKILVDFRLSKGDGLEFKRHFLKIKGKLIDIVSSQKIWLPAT

Structure (SMILES) | EC50 (NCI-H1299) | IC50 [1] | IC50 [2]
c1cc(N2CCNCC2)cc(Nc2ncc(-c3cncc(-c4cn[nH]c4)c3)s2)n1 | 5530 nM | 260 nM | 
NCCNC(=O)c1cccc(-c2cnc(Nc3cc(N4CCC(F)(F)CC4)ccn3)s2)c1 | > 10000 nM | 160 nM | 8 nM
Cc1ccc(-c2cnc(Nc3cccc(N4CCNCC4)n3)s2)cn1 | > 16700 nM | 1000 nM | 38 nM
NCCCCc1cncc(-c2cnc(Nc3cc(N4CCOCC4)ccn3)s2)c1 |  | > 10000 nM | 12 nM
c1ccc(-c2cnc(Nc3cccc(N4CCNCC4)n3)s2)cc1 | > 16700 nM | 26 nM | 33 nM
c1ncc(-c2cncc(-c3cnc(Nc4cc(N5CCOCC5)ccn4)s3)c2)cn1 | > 10000 nM | > 10000 nM | 
Brc1cncc(-c2cnc(Nc3cc(N4CCNCC4)ccn3)s2)c1 | > 50000 nM | 480 nM | 21 nM
NCCNC(=O)c1cncc(-c2cnc(Nc3cc(N4CCOCC4)ccn3)s2)c1 | 460 nM | 340 nM | 
O=C(NCCO)c1cncc(-c2cnc(Nc3cc(N4CCOCC4)ccn3)s2)c1 | > 10000 nM | > 10000 nM | 15 nM
O=C(NCC(F)(F)F)c1cncc(-c2cnc(Nc3cc(N4CCOCC4)ccn3)s2)c1 | 198 nM | 705 nM | 1.6 nM
CS(=O)(=O)N1CCN(c2ccnc(Nc3ncc(-c4cncc(C(=O)NCC(F)(F)F)c4)s3)c2)CC1 | 106 nM | 2100 nM | 1.7 nM
c1cn(-c2cncc(-c3cnc(Nc4cc(N5CCOCC5)ccn4)s3)c2)nn1 | 1390 nM | > 10000 nM | 9 nM
Cc1cccnc1Nc1ncc(-c2cncc(C(=O)NCCN)c2)s1 | 430 nM | 910 nM | 0.4 nM
NCCNC(=O)c1cncc(-c2cnc(Nc3cc(N4CCC(F)CC4)ccn3)s2)c1 | 484 nM | 350 nM | 0.07 nM
NC(=O)c1cncc(-c2cnc(Nc3cc(N4CCOCC4)ccn3)s2)c1 | > 10000 nM | > 3700 nM | 10 nM
Cn1cc(-c2cncc(-c3cnc(Nc4cc(N5CCNCC5)ccn4)s3)c2)cn1 | 1330 nM | > 2000 nM | 6 nM

Structure (SMILES) | EC50 (NCI-H1299) | IC50 [1] | IC50 [2]
NCCNC(=O)c1cncc(-c2cnc(Nc3ncccc3Cl)s2)c1 | 330 nM | 960 nM | 0.3 nM
O=C(CN1CCN(c2ccnc(Nc3ncc(-c4cccnc4)s3)c2)CC1)N1CCOCC1 | > 50000 nM | 1760 nM | 
c1cc(Nc2ncc(-c3cncnc3)s2)nc(N2CCNCC2)c1 |  | 410 nM | 160 nM
CC(=O)N1CCN(c2ccnc(Nc3ncc(-c4cncc(C(=O)NCCN)c4)s3)c2)CC1 | 1210 nM | 210 nM | 
CNC(=O)c1cncc(-c2cnc(Nc3cc(N4CCOCC4)ccn3)s2)c1 | 300 nM | > 10000 nM | 7 nM
Cc1ccc(NC(=O)c2cncc(-c3cnc(Nc4cc(N5CCOCC5)ccn4)s3)c2)s1 | 920 nM | > 10000 nM | 12 nM
NCCNC(=O)c1cncc(-c2cnc(Nc3ccccc3Cl)s2)c1 | > 10000 nM | > 10000 nM | 33 nM
Cc1ccc(-c2cnc(Nc3cc(N4CCNCC4)ccn3)s2)cn1 | 1370 nM | > 20000 nM | 
c1ncc(-c2cnc(Nc3cc(N4CCNCC4)ccn3)s2)cn1 | 1530 nM | 11000 nM | 29 nM
Cc1ccc(-c2cnc(Nc3cccc(NCCCN)n3)s2)cn1 | > 16700 nM | 870 nM | 27 nM
c1cncc(-c2cncc(-c3cnc(Nc4cc(N5CCOCC5)ccn4)s3)c2)c1 | > 10000 nM | > 10000 nM | 
c1cncc(-c2cncc(-c3cnc(Nc4cc(N5CCNCC5)ccn4)s3)c2)c1 | 570 nM | > 10000 nM | 5 nM
O=C(O)c1cncc(-c2cnc(Nc3cc(N4CCNCC4)ccn3)s2)c1 | > 10000 nM | > 10000 nM | 16 nM
CS(=O)(=O)N1CCN(c2ccnc(Nc3ncc(-c4cncc(C(=O)NCCN)c4)s3)c2)CC1 | 500 nM | 170 nM | 
NCCNC(=O)c1cncc(-c2cnc(Nc3cc(Cl)ccn3)s2)c1 | 940 nM | 940 nM | 16 nM
